# According to BindingDB's records for doi:10.1021/jm061268p (University of Arizona, 2007):
# Target: T1, Cholecystokinin receptor type A (Homo sapiens, UniProt P32238)
# T1 sequence (P32238 whole entry): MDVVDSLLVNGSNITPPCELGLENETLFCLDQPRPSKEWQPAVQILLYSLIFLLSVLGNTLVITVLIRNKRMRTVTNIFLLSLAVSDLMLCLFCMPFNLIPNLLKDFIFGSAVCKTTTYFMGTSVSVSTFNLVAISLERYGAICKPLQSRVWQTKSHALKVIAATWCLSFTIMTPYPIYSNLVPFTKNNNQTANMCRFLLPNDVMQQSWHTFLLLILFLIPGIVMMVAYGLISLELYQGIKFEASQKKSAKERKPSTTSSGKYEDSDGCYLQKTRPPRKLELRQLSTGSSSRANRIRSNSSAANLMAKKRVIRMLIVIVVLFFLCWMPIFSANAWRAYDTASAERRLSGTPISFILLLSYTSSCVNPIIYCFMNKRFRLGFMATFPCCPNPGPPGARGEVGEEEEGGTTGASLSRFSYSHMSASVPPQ
# Assay: Displacement of [125I]CCK8-SO3 from human CCK1 receptor expressed in HEK293 cells
row,Compound,IC50 [nM]
1,CCCC[C@@H](NC(=O)[C@H](Cc1c[nH]c2ccccc12)NC(=O)OC(C)(C)C)C(=O)N[C@H](CC(=O)O)C(=O)N[C@H](Cc1ccccc1)C(=O)NNC(=O)[C@H](Cc1ccccc1)NC(=O)CNC(=O)[C@@H](C)NC(=O)[C@@H](N)Cc1ccc(O)cc1 [H-Tyr-D-Ala-Gly-Phe-NH-NH-D-Phe-D-Asp-D-Nle-Trp-Boc],5.05
2,CCCC[C@H](NC(=O)[C@H](CC(=O)O)NC(=O)[C@@H](N)Cc1ccccc1)C(=O)N[C@H](Cc1c[nH]c2ccccc12)C(=O)NNC(=O)[C@H](Cc1ccccc1)NC(=O)CNC(=O)[C@@H](C)NC(=O)[C@@H](N)Cc1ccc(O)cc1 [H-Tyr-D-Ala-Gly-Phe-NH-NH-D-Trp-Nle-Asp-Phe-H],5.15
3,CCCC[C@@H](NC(=O)[C@@H](CC(=O)O)NC(=O)[C@H](N)Cc1ccccc1)C(=O)N[C@@H](Cc1c[nH]c2ccccc12)C(=O)NNC(=O)[C@H](Cc1ccccc1)NC(=O)CNC(=O)[C@@H](C)NC(=O)[C@@H](N)Cc1ccc(O)cc1 [H-Tyr-D-Ala-Gly-Phe-NH-NH-Trp-D-Nle-D-Asp-D-Phe-H],5.72
